Results on 1 compound are retold here after patent US20230277669A1, “USES OF UROLITHINS” (Amazentis SA, priority 2022, published 2023).

Molecules are shown by their SMILES.

One assay has as its system Pgam5^-/- CD8^+ T cells. The assay can be described thus: In vitro stimulation of PGAM5-/- CD8+ cells in presence of UA. Format: cell-based, PGAM5^-/- mice. As for the experimental part:
(FIG. 5H) Immunofluorescence of PGAM5 (green) in CD3+ cells after in vitro stimulation with aCD3/aCD28 stimulation beads for six hours. Cells were stained with Mitotracker Red to display mitochondrial colocalisation in the DMSO control as opposed to cytosolic release in the UA sample (m, mitochondrial co-localization; c, cytoplasmic localization) Scale=5 um. (FIG. 5I) In vitro stimulation of PGAM5^-/- CD8+ cells: Percentage of TSCM after 48 h of stimulation with aCD3/aCD28 stimulation beads in the presence of UA. All data depicts mean ± SD, n=4 per group. Statistics shown here depict unpaired, two-sided t-test and Mann-Whitney test (I; (DMSO vs UA25; DMSO vs UA50). *p < 0.05; n.s. not significant. (FIG. 5J) Percentage of CD95+ er 48 h of stimulation with aCD3/aCD28 stimulation beads in the presence of UA. (FIG. 5K) CD95+er 48 h of stimulation with aCD3/aCD28 stimulation beads in the presence of UA.
(FIG. 5L) UA induces PGC-1α expression in stimulated CD8+ cells. PGC-1α MFI at 48 h upon stimulation, as assessed by intracellular staining, is shown (n=3). One of two independent experiments are shown. Data are mean ± SD, statistical analysis was performed by two-sided t-test (p**<0.01). (FIG. 5M) Mitochondrial content of TIL CD8+ cells harvested from APTK-carrying mice, fed UA or control diet as depicted in FIG. 1J. Assessed by Mitotracker Red staining. Data are mean ± SD, *p < 0.05 by two-sided t-test. (FIG. 5N) Mitophagy and subsequent PGAM5 release drive PGC-1α upregulation. PGC-1α expression of CD8+ cells derived from Pink1^-/- KO mice upon 48 h stimulation in vitro in the presence of UA or DMSO control (n=4). Data are mean ± SD, statistical analysis was performed by two-sided t-test. Depicts one of two independent experiments. (FIG. 5O) Mitophagy and subsequent PGAM5 release drive PGC-1 α upregulation. PGC-1α expression of CD8+ cells derived from PGAM5^-^/- mice upon 48 h stimulation in vitro in the presence of UA or DMSO control (n=4). Data are mean ± SD, statistical analysis was performed by two-sided t-test. […] Cells were co-treated with DMSO, UA and an inhibitor of PGC-1α (PGC-1αi) as indicated (n=4). One of two independent experiments are shown. Data are mean ± SD, statistical analysis was performed by two-sided t-test (p**<0.01; ***p <0.001; n.s. not significant).(FIG. 5Q) Urolithin A induces TSCM in human CD8+ cells: Schematic overview. PBMC were isolated from healthy donors, prior to T cell purification and in vitro stimulation via aCD3/aCD28 stimulation beads at the presence of UA or DMSO control. (FIG. 5R) Quantification of human TSCM (n=4). Representative data of one out of five donors with the same result are shown. (FIG. 5S) Quantification of TMRM^loCD8+ human cells 48 h after activation in the presence of UA or DMSO control (n=4). (FIG. 5T) TCF1 expression in human CD8 cells as assessed by flow cytometry (n=4). All data are mean ± SD; statistical analysis was performed by two-sided t-test (*p < 0.05; p**<0.01; p****0.0001).
(FIG. 8B) qPCR analysis of selected Wnt target genes 24 h after stimulation (n=4). Data are mean ± SEM, statistical analysis was performed by two-sided t-test (* p<0.05, ** p<0.01, *** p<0.001). (FIG. 8C) CD8+ cells from PGAM5^-/- mice display an adequate mitophagy response upon UA treatment: Flow cytometry analysis of lysosome formation after six hours of in vitro stimulation via aCD3/aCD28 stimulation beads (n=4). (FIG. 8D) CD8+ cells from PGAM5^-/- mice display an adequate mitophagy response upon UA treatment: Mitotracker Red signal after 24 h in PGAM5^-/- CD8+ stimulated in vitro at the presence of UA or vehicle control. Congruent histograms are shown. Data are mean ± SD, statistical analysis was performed by two-sided t-test (* p<0.05, ** p<0.01, *** p<0.001). (FIG. 8E) Cytosolic fractionation Western blot of Pink1^-/- CD3+ cells 6 h after stimulation with plate-bound aCD3/aC28 antibodies in the presence of Urolithin A or DMSO control. […]

For assay [1], the system named is CAR-T cells specific for carcinoembryonic antigen (CEA). The assay can be described thus: UA applied to previously frozen CEA-specific CAR-T cells. Format: cell-based, human.

In the case of `O=c1oc2cc(O)ccc2c2ccc(O)cc12` [Urolithin A], the “mitochondrial content (Mitotracker Red)” value in the assay on Pgam5^-/- CD8^+ T cells (24 h) is listed as “reduced mitochondrial content”. Moreover, in the assay on Pgam5^-/- CD8^+ T cells (48 h), the PGC-1α expression entry is on record as “failed to enhance”, the TCF1 result is listed as “failed to upregulate”, the “UA-dependent expansion of CD44-CD62L+Sca1hi TSCM cells” value was “blocked the UA-dependent expansion” and the “memory marker CD95” value is given as “failed to upregulate”. Also, the lysosome formation entry with Pgam5^-/- CD8^+ T cells (six hours) is “still enhanced lysosome formation”. Moreover, in assay [1], the “CAR TSCM formation” value is recorded as “strongly enhanced CAR TSCM formation”.
